Experimental data: patent US11780841B2, “3,6-methano-1H-pyrrolo[3,2-b]pyridine and 3,6-methano-1H-pyrrolo[3,2-c]pyridine compounds and medicaments using same” (priority 2018, dated 2023)

What follows are compounds tested on recombinant rabies virus 1088 strain expressing Gaussia Luciferase (GLuc) (1088/GLuc). Conditions: read-out: Anti-rabies activity.
Type: cell-based
In the case of CC(C)CN1C[C@H]2C[C@]3(C(=O)NCCC(=O)O)NC[C@H]2[C@H]1[C@H]3Cc1cccc2ccccc12 [IF-428], the IC50 is reported as 10 to 30 µM.
For CC(C)C[C@@H]1[C@H]2CN[C@@]3(C(=O)NCCO)[C@@H](C2)CN(Cc2ccc(F)cc2)[C@@H]13 [IB-650], the IC50 was 10 to 30 µM.
Compound O=C(NCCc1ccccc1)[C@@]12C[C@@H]3CN(CCO)[C@@H]([C@@H]3CN1)[C@H]2Cc1cccc2ccccc12 [IF-610] has an IC50 of 10 to 30 µM.
With O=C(O)CCN1CC2CC3CNC2(C(=O)NCc2ccc(O)cc2)C1C3Cc1cccc2ccccc12 (stereo not drawn) [IB-516] the IC50 was 10 to 30 µM.
In the case of CC(C)C[C@@H]1[C@@H]2[C@@H]3CN[C@@]1(C(=O)NCCC(N)=O)C[C@@H]3CN2CCc1ccccc1 [IF-699], the IC50 is reported as 10 to 30 µM.
CC(C)CC1C2CNC3(C(=O)NCc4cccc5ccccc45)C(C2)CN(CCO)C13 (stereo not drawn) [IB-585] gave an IC50 of 10 to 30 µM.
Compound CC(C)CCN1C[C@@H]2C[C@@H]3CN[C@]2(C(=O)NCCO)[C@@H]1[C@@H]3Cc1cccc2ccccc12 [IB-659] has an IC50 of under 5 µM.
With CC(C)C[C@@H]1[C@@H]2[C@@H]3CN[C@@]1(C(=O)NCc1ccc(Cl)cc1)C[C@@H]3CN2CC(C)C [IF-846] the IC50 was 10 to 30 µM.
O=C(NCc1ccccc1)[C@]12NC[C@H]3C[C@H]1CN(Cc1cccc4ccccc14)[C@H]2[C@@H]3Cc1ccccc1 (relative stereo) [IB-42, (3S*,3aS*,6S*,7R*,7aS*)-N,7-dibenzyl-1-(naphthalen-1-ylmethyl)octahydro-3aH-3,6-methanopyrrolo[3,2-b]pyridine-3a-carboxamide] gave an IC50 of 10 to 30 µM.
In the case of CC(C)CC[C@@H]1[C@H]2CN[C@@]3(C(=O)NCCCNC(=N)N)[C@@H](C2)CN(CC2CCCCC2)[C@@H]13 [IB-361], the IC50 is reported as 10 to 30 µM.
Work on CC(C)C[C@@H]1[C@H]2CN[C@@]3(C(=O)NCc4ccc(O)cc4)[C@@H](C2)CN(CCc2ccccc2)[C@@H]13 [IB-449] yielded an IC50 of 10 to 30 µM.
In the case of O=C(NCc1ccc(F)cc1)[C@@]12C[C@@H]3CN(CCO)[C@@H]([C@@H]3CN1)[C@H]2CCc1ccccc1 (relative stereo) [IF-516], the IC50 is reported as under 5 µM.
Compound O=C(NCCc1ccccc1)[C@@]12C[C@@H]3CN(CC4CCCCC4)[C@@H]([C@@H]3CN1)[C@H]2Cc1ccc(O)cc1 [IF-439] has an IC50 of under 5 µM.
CC(C)CC[C@@H]1[C@H]2CN[C@@]3(C(=O)NCCC(N)=O)[C@@H](C2)CN(Cc2cccc4ccccc24)[C@@H]13 [IB-349] gave an IC50 of under 5 µM.
CC(C)CCN1C[C@H]2C[C@]3(C(=O)NCCC(=O)O)NC[C@H]2[C@H]1[C@H]3CCc1ccccc1 [IF-830] was tested, and the IC50 was 10 to 30 µM.
In the case of CCN1C[C@@H]2[C@H]3CN(Cc4ccc(C)cc4)[C@@H]2[C@@H](CC(C)C)[C@]1(C(=O)NCc1ccccc1)C3 [IF-855], the IC50 is reported as 5 to 10 µM.
For CC(C)CNC(=O)[C@@]12C[C@@H]3CN(CC(C)C)[C@@H]([C@@H]3CN1)[C@H]2Cc1cccc2ccccc12 [IF-680], the IC50 was 10 to 30 µM.
Compound NC(=O)C[C@@H]1[C@@H]2[C@@H]3CN[C@@]1(C(=O)NCCc1ccccc1)C[C@@H]3CN2Cc1ccc(F)cc1 [IF-269] has an IC50 of 10 to 30 µM.
Work on CC(C)CN1C[C@H]2C[C@]3(C(=O)NCc4ccccc4)NC[C@H]2[C@H]1[C@H]3CCc1ccccc1 (relative stereo) [IF-11] yielded an IC50 of 10 to 30 µM.
In the case of CC(C)CNC(=O)[C@]12NC[C@H]3C[C@H]1CN(CCc1ccccc1)[C@H]2[C@@H]3CC(C)C [IB-760], the IC50 is reported as under 5 µM.
Work on CC(C)C[C@@H]1[C@@H]2[C@@H]3CN[C@@]1(C(=O)NCc1ccccc1)C[C@@H]3CN2Cc1ccc(C(C)(C)C)cc1 [IF-849] yielded an IC50 of 5 to 10 µM.
CC(C)CN1C[C@H]2C[C@]3(C(=O)NCc4ccccc4)NC[C@H]2[C@H]1[C@H]3Cc1cccc2ccccc12 [IF-753] showed an IC50 of 10 to 30 µM.
Work on CCCCCCNC(=O)[C@@]12C[C@@H]3CN(Cc4ccccc4)[C@@H]([C@@H]3CN1)[C@H]2Cc1ccc(O)cc1 [IF-692] yielded an IC50 of under 5 µM.
CC(C)CC[C@@H]1[C@@H]2[C@@H]3CN[C@@]1(C(=O)NCC(C)C)C[C@@H]3CN2CC(C)C [IF-412] was tested, and the IC50 was under 5 µM.
Compound O=C(O)CCNC(=O)[C@@]12C[C@@H]3CN(CC4CCCCC4)[C@@H]([C@@H]3CN1)[C@H]2Cc1cccc2ccccc12 [IF-416] has an IC50 of 10 to 30 µM.
Work on O=C(NCc1ccc(F)cc1)[C@]12NC[C@H]3C[C@H]1CN(CCO)[C@H]2[C@@H]3CCc1ccccc1 [IB-492] yielded an IC50 of under 5 µM.
Compound CC(C)CCN1C[C@H]2C[C@]3(C(=O)NCc4ccccc4)NC[C@H]2[C@H]1[C@H]3Cc1ccccc1 (relative stereo) [IF-9] has an IC50 of 10 to 30 µM.
With CC(C)CCNC(=O)[C@]12NC[C@H]3C[C@H]1CN(CCO)[C@H]2[C@@H]3Cc1ccccc1 [IB-714] the IC50 was under 5 µM.
With CCCCCCNC(=O)[C@]12NC[C@H]3C[C@H]1CN(CC(N)=O)[C@H]2[C@@H]3Cc1cccc2ccccc12 [IB-110] the IC50 was under 5 µM.
NC(=O)CCNC(=O)[C@]12NC[C@H]3C[C@H]1CN(Cc1ccc(F)cc1)[C@H]2[C@@H]3Cc1ccccc1 [IB-712] was tested, and the IC50 was under 5 µM.
With O=C(NCc1ccccc1)[C@@]12C[C@@H]3CN(Cc4cccc5ccccc45)[C@@H]([C@@H]3CN1)[C@H]2Cc1ccccc1 (relative stereo) [IF-42] the IC50 was 10 to 30 µM.
Work on CC(C)C[C@@H]1[C@H]2CN[C@@]3(C(=O)NCc4ccc(Cl)cc4)[C@@H](C2)CN(CC(C)C)[C@@H]13 [IB-871] yielded an IC50 of 10 to 30 µM.
With NC(=O)CCNC(=O)[C@]12NC[C@H]3C[C@H]1CN(Cc1ccc(O)cc1)[C@H]2[C@@H]3Cc1cccc2ccccc12 [IB-743] the IC50 was under 5 µM.
CC(C)C[C@@H]1[C@@H]2[C@@H]3CN[C@@]1(C(=O)NCc1ccc(Cl)c(Cl)c1)C[C@@H]3CN2Cc1ccccc1 (relative stereo) [IF-20] showed an IC50 of 10 to 30 µM.
Work on Cc1ccc(CN2C[C@H]3C[C@]4(C(=O)NCc5ccccc5)NC[C@H]3[C@H]2[C@H]4CC(C)C)cc1 [IF-842] yielded an IC50 of under 5 µM.
With O=C(NCc1ccccc1)[C@@]12C[C@@H]3CN(Cc4ccc(F)cc4)[C@@H]([C@@H]3CN1)[C@H]2Cc1ccccc1 [IF-649] the IC50 was under 5 µM.
NC(=O)CN1C[C@H]2C[C@]3(C(=O)NCc4cccc5ccccc45)NC[C@H]2[C@H]1[C@H]3Cc1ccccc1 (relative stereo) [IF-82] was tested, and the IC50 was 10 to 30 µM.
N=C(N)NCCC[C@@H]1[C@@H]2[C@@H]3CN[C@@]1(C(=O)NCc1cccc4ccccc14)C[C@@H]3CN2Cc1ccc(F)cc1 [IF-297] was tested, and the IC50 was 10 to 30 µM.
CC(C)C[C@@H]1[C@H]2CN[C@@]3(C(=O)NCCC(N)=O)[C@@H](C2)CN(CCc2ccccc2)[C@@H]13 [IB-708] showed an IC50 of under 5 µM.
CC(C)CCN1C[C@@H]2C[C@@H]3CN[C@]2(C(=O)NCc2ccccc2)[C@@H]1[C@@H]3Cc1ccc(O)cc1 [IB-749] gave an IC50 of 10 to 30 µM.
NC(=O)C[C@@H]1[C@@H]2[C@@H]3CN[C@@]1(C(=O)NCCO)C[C@@H]3CN2Cc1cccc2ccccc12 [IF-230] gave an IC50 of 10 to 30 µM.
NC(=O)CN1C[C@@H]2C[C@@H]3CN[C@]2(C(=O)NCc2cccc4ccccc24)[C@@H]1[C@@H]3Cc1cccc2ccccc12 [IB-90] showed an IC50 of under 5 µM.
For CCCCCCNC(=O)[C@]12NC[C@H]3C[C@H]1CN(CCO)[C@H]2[C@@H]3Cc1ccccc1 [IB-476], the IC50 was under 5 µM.
CC(C)C[C@@H]1[C@H]2CN[C@@]3(C(=O)NCc4ccccc4)[C@@H](C2)CN(Cc2ccc(Cl)cc2)[C@@H]13 [IB-864] showed an IC50 of 5 to 10 µM.
With O=C(NCCO)[C@@]12C[C@@H]3CN(CC4CCCCC4)[C@@H]([C@@H]3CN1)[C@H]2Cc1cccc2ccccc12 [IF-619] the IC50 was 10 to 30 µM.
O=C(NCCO)[C@@]12C[C@@H]3CN(Cc4ccc(F)cc4)[C@@H]([C@@H]3CN1)[C@H]2Cc1cccc2ccccc12 [IF-620] was tested, and the IC50 was under 5 µM.
O=C(NCc1ccc(F)cc1)[C@@]12C[C@@H]3CN(Cc4ccccc4)[C@@H]([C@@H]3CN1)[C@H]2Cc1ccccc1 (relative stereo) [IF-561] gave an IC50 of under 5 µM.
In the case of CC(C)CN1CC2CC3CNC2(C(=O)NCCc2ccccc2)C1C3Cc1ccc(O)cc1 (stereo not drawn) [IB-536], the IC50 is reported as 10 to 30 µM.
In the case of O=C(O)CC[C@@H]1[C@H]2CN[C@@]3(C(=O)NCc4cccc5ccccc45)[C@@H](C2)CN(Cc2ccc(F)cc2)[C@@H]13 [IB-390], the IC50 is reported as 10 to 30 µM.
With CC(C)C[C@@H]1[C@@H]2[C@@H]3CN[C@@]1(C(=O)NCCc1ccccc1)C[C@@H]3CN2Cc1ccccc1 [IF-721] the IC50 was under 5 µM.
With CC(C)C[C@@H]1[C@H]2CN[C@@]3(C(=O)NCc4ccc(O)cc4)[C@@H](C2)CN(Cc2ccc(N(C)C)cc2)[C@@H]13 (relative stereo) [IB-892] the IC50 was 10 to 30 µM.
CC(C)NC(=O)[C@]12NC[C@H]3C[C@H]1CN(CCCNC(=N)N)[C@H]2[C@@H]3CCc1ccccc1 [IB-179] showed an IC50 of 10 to 30 µM.
CC(C)CNC(=O)[C@@]12C[C@@H]3CN(Cc4cccc5ccccc45)[C@@H]([C@@H]3CN1)[C@H]2CCCNC(=N)N [IF-235] showed an IC50 of 10 to 30 µM.
CCCCCCNC(=O)[C@]12NC[C@H]3C[C@H]1CN(CC(N)=O)[C@H]2[C@@H]3CCC(C)C [IB-108] was tested, and the IC50 was 10 to 30 µM.
CCCCCCNC(=O)[C@]12NC[C@H]3C[C@H]1CN(CCO)[C@H]2[C@@H]3Cc1ccc(O)cc1 [IB-478] gave an IC50 of 10 to 30 µM.
CC(C)CNC(=O)[C@]12NC[C@H]3C[C@H]1CN(Cc1ccc(F)cc1)[C@H]2[C@@H]3CC(C)C [IB-630] was tested, and the IC50 was under 5 µM.
In the case of CC(C)C[C@@H]1[C@@H]2CN[C@@]3(C(=O)NCc4cccc5ccccc45)[C@@H](C2)CN(CCCNC(=N)N)[C@@H]13 (relative stereo) [IB-164, (3S*,3aS*,6R*,7R*,7aS*)-1-(3-guanidinopropyl)-7-isobutyl-N-(naphthalen-1-ylmethyl)octahydro-3aH-3,6-methanopyrrolo[3,2-b]pyridine-3a-carboxamide], the IC50 is reported as under 5 µM.
O=C(NCCc1ccccc1)[C@@]12C[C@@H]3CN(CC4CCCCC4)[C@@H]([C@@H]3CN1)[C@H]2Cc1ccccc1 [IF-710] gave an IC50 of under 5 µM.
CC(C)CNC(=O)[C@]12NC[C@H]3C[C@H]1CN(CCc1ccccc1)[C@H]2[C@@H]3Cc1ccc(O)cc1 [IB-625] showed an IC50 of 10 to 30 µM.
CC(C)CN1C[C@H]2C[C@]3(C(=O)NCc4ccccc4)NC[C@H]2[C@H]1[C@H]3CC1CCCCC1 (relative stereo) [IF-38] was tested, and the IC50 was 10 to 30 µM.
In the case of N=C(N)NCCCNC(=O)[C@]12NC[C@H]3C[C@H]1CN(Cc1ccccc1)[C@H]2[C@@H]3Cc1cccc2ccccc12 [IB-280], the IC50 is reported as 10 to 30 µM.
Work on CC(C)CC[C@@H]1[C@@H]2[C@@H]3CN[C@@]1(C(=O)NCc1ccc(O)cc1)C[C@@H]3CN2CCC(=O)O [IF-458] yielded an IC50 of 10 to 30 µM.
With NC(=O)C[C@@H]1[C@@H]2[C@@H]3CN[C@@]1(C(=O)NCc1ccc(O)cc1)C[C@@H]3CN2CC1CCCCC1 [IF-247] the IC50 was 10 to 30 µM.

Same assay, conditions: read-out: IC50
In the case of CC(C)CN1C[C@H]2C[C@]3(C(=O)NCc4ccccc4)NC[C@H]2[C@H]1[C@H]3CCc1ccccc1 (relative stereo) [IF-11], the IC50 is reported as 17.5 µM.
CC(C)CCN1C[C@H]2C[C@]3(C(=O)NCc4ccccc4)NC[C@H]2[C@H]1[C@H]3Cc1ccccc1 (relative stereo) [IF-9] gave an IC50 of 15.6 µM.
CC(C)C[C@@H]1[C@@H]2[C@@H]3CN[C@@]1(C(=O)NCc1ccc(Cl)c(Cl)c1)C[C@@H]3CN2Cc1ccccc1 (relative stereo) [IF-20] gave an IC50 of 11.6 µM.
